Ends that are not written are not given here.
What was measured:
[1] = test system: CD44 receptor on THP-1 macrophages; test: CD44 surface expression on THP-1 macrophages under conditions of inflammation (flow cytometry); format: cell-based, human; settings: 24 h, serum-free medium
Description: THP-1 monocytes were cultured in RPMI 1640 medium supplemented with 10% heat-inactivated FBS, 10 mM HEPES, 2 mM glutamine, 100 U/I penicillin, and 100 μg/mL streptomycin and maintained at 37 °C and 5% CO2. THP-1 monocytes were differentiated into THP-1 macrophages using 50 ng/mL phorbol-12-myristate 13-acetate (PMA) for 24 h. Subsequently, adherent cells were washed twice with serum-free medium and rested for another 24 h in PMA-free RPMI + 10% FBS medium. CD44 expression on THP-1 macrophages was conducted using flow cytometry following incubation with the CD44-specific antibody (1:1000 dilution) for 1 h followed by cell pelleting and washing the cell pellet with PBS. THP-1 macrophages were then incubated with DyLight 488 goat anti-mouse IgG at 1:1000 dilution for 30 min. […] THP-1 macrophages were washed with PBS, collected, and CD44 expression was determined using flow cytometry as described above.

THP-1 macrophages [2] = test: ROS generation in MSU-stimulated THP-1 macrophages (flow cytometry); format: cell-based, human; settings: 10 and 25 μM, 24 h, then MSU 100 μg/mL 6 h; vs MSU alone
Description: (§1) THP-1 macrophages (500,000 cells per well) were treated with MSU crystals (100 μg/mL) for 2, 4, and 6 h. ROS staining solution (1:1000 ratio) was added to the wells and incubated for 1 h. Subsequently, cells were collected, washed, and cell-associated fluorescence was determined using flow cytometry. Media were collected at 2, 4, and 6 h, and IL-8 media concentrations were determined by ELISA. […] Subsequently, cells were treated with MSU crystals (100 μg/mL) for 6 h. ROS generation and IL-8 concentrations were determined as described above.

[3] = target: T1, recombinant human CD44 receptor (Homo sapiens, UniProt P16070); test: ELISA binding of coated P6 peptide or HA to CD44-IgG Fc fusion protein; settings: for binding to the CD44 receptor (ELISA absorbance at 450 nm): wells coated 1 ng/mL to 1 μg/mL, CD44-IgG Fc 0.1 µg/mL, 1 h room temperature, three independent experiments
T1 construct: purchased R&D Systems
Description: Wells of high-binding microtiter plates were coated with either the P6 peptide or high molecular weight HA (molecular weight >1 million Da) in serial concentrations between 1 ng/mL and 1 μg/mL overnight in phosphate buffered saline (PBS) (100 µL per well) at 4 °C. […] CD44-IgG Fc fusion protein (R&D Systems) (0.1 µg/mL) in PBS + 0.05% Tween 20 (100 µL per well) was added to both coated and uncoated wells and incubated for 1 h at room temperature. Following washing with PBS + 0.1% Tween 20, anti-human IgG Fc-HRP (1:1000) was added and incubated at room temperature for 1 h, followed by washing three times with PBS + 0.05% Tween 20. Turbo TMB-ELISA substrate solution was added (100 µL per well), and absorbance intensity was determined at 450 nm. Absorbance values in the […] to adjust for any non-specific binding by CD44-IgFc.

THP-1 macrophages [4] = test: Cytotoxicity against THP-1 macrophages (Cell Counting Kit-8); settings: 24 h, CCK-8; for cytotoxic effect against THP-1 macrophages (in words): 1, 10 and 25 μM, three independent experiments
Description: Subsequently, 10 μL of CCK-8 solution was added to each well and absorbance was measured 90 min later at 450 nm. Cytotoxicity was expressed as the percentage of viable cells following treatments.

in vitro = settings: human, cerebrospinal or other body fluid
Description: Using seven microcentrifuge tubes, a total of 50 μL of normal SF was diluted with 150 μL of PBS in each tube. Following equilibrating diluted SF to 37 ± 1 °C for 15 min, 50 μL of peptide stock solution (1 mM solution in 100% sterile water) was added to each tube. Next, at different time intervals (0, 1, 2, 3, 4, 6, and 24 h), an aliquot of the reaction solution (100 μL) was sampled. Cold methanol (200 μL) was added to each aliquot in order to precipitate proteins that were present in the SF. This was followed by cooling the solution to 4 °C for 15 min followed by centrifugation at 500 g for 15 min to precipitate SF proteins. To determine the proteolytic stability of the P6 peptide, the supernatant was injected into an analytical RP-HPLC C18 column. In order to measure the concentration of the P6 peptide isolated from SF, the area under the curve (AUC) of the P6 peptide at each time point was estimated using an average of four runs, and normalized to AUC values at time 0 and expressed as the percentage of AUC at time 0.

THP-1 macrophages [5] = test: IL-8 secretion by MSU-stimulated THP-1 macrophages (ELISA); format: cell-based, human; settings: 1, 10 and 25 μM, 24 h, then MSU 100 μg/mL 6 h; vs MSU alone
Description: as §1

THP-1 macrophages [6] = test: MSU crystal phagocytosis by THP-1 macrophages (flow cytometry side-scatter, % cells in P2 region); format: cell-based, human
Description: THP-1 macrophages (500,000 cells per well) were treated with MSU crystals (100 μg/mL) ± HA (100 μg/mL) for 4 h. Subsequently, macrophages were collected, pelleted, and washed with PBS. MSU phagocytosis was determined by analyzing the change in cell side-scatter using a flow cytometer. Two regions of interest were identified: the P1 region representing the THP-1 macrophage population in the absence of MSU crystal exposure and the P2 region with increased cell side scatter indicative of MSU phagocytosis. Data are presented as the percentage of cells in the P2 region across different experimental groups.
Subsequently, cells were treated with MSU crystals (100 μg/mL) for 4 h. MSU phagocytosis by THP-1 macrophages was determined using flow cytometry as described above.

T1 sequence (P16070 with tags, fused parts or gaps limits assumed): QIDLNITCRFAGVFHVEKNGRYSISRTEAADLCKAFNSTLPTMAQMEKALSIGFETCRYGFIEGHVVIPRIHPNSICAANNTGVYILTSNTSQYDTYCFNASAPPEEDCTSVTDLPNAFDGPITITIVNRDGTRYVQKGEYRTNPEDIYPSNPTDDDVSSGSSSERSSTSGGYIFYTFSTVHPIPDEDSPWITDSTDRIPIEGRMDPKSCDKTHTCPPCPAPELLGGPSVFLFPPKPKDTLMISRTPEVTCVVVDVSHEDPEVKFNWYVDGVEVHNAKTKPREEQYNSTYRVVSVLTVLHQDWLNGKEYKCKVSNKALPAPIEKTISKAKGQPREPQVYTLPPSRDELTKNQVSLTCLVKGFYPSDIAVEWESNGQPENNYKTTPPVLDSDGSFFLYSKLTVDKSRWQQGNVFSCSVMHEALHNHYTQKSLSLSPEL

O=c1[nH]c(=O)c2[nH]c(=O)[nH]c2[nH]1 [UA, uric acid]
enhancement in cell surface CD44 protein staining compared to untreated control macrophages ([1]; UA 10 mg/dL): approximately 3 fold

WYKGDKFLYLQNGIEAIADF-NH2 [P6 peptide]
ROS generation (THP-1 macrophages [2]): reduced | difference between P6 peptide and HA binding to CD44 ([3]; across all coating concentrations 1 ng/mL to 1 μg/mL): no significant difference | binding to the CD44 receptor (ELISA absorbance at 450 nm) [3]: concentration-dependent binding | cytotoxic effect against THP-1 macrophages (in words) (THP-1 macrophages [4]): no cytotoxic effect | half-life at 200 μM (in vitro): ~4 h | IL-8 secretion (THP-1 macrophages [5]): reduced | MSU phagocytosis by THP-1 macrophages (THP-1 macrophages [6]; 10 and 25 μM, 24 h pre-treatment, then MSU 100 μg/mL 4 h, vs MSU alone): significantly reduced MSU phagocytosis

IL-1β: recombinant human IL-1β, proinflammatory cytokine
enhancement in cell surface CD44 protein staining compared to untreated control macrophages ([1]; IL-1β 10 ng/mL): approximately two-fold

hyaluronic acid [HA]
binding to the CD44 receptor (ELISA absorbance at 450 nm) [3]: concentration-dependent binding | MSU phagocytosis by THP-1 macrophages (THP-1 macrophages [6]; 100 μg/mL co-treatment with MSU 100 μg/mL for 4 h): significantly reduced MSU phagocytosis

COc1cc2c(c(OC)c1OC)-c1ccc(OC)c(=O)cc1[C@@H](NC(C)=O)CC2 [colchicine]
ROS generation (THP-1 macrophages [2]): reduced | reduction of macrophage cell viability (THP-1 macrophages [4]; 1 μM): approximately 50% | reduction of macrophage cell viability (THP-1 macrophages [4]; 25 μM): approximately 80% | cytotoxic effect against THP-1 macrophages (in words) (THP-1 macrophages [4]): dose-dependent cytotoxic effect | IL-8 secretion (THP-1 macrophages [5]): reduced | MSU phagocytosis by THP-1 macrophages (THP-1 macrophages [6]; 1, 10 and 25 μM, 24 h pre-treatment, then MSU 100 μg/mL 4 h, vs MSU alone): reduced MSU phagocytosis
